Assay results from the supplement of paper PMC13380429.
± gives the standard deviation of the averaged measurements.

Assays:
Conditions in all cases: 72 h
U2OS [1] = experiment: drug sensitivity score (DSS) for viability; higher = more toxic; extreme values may be limits of the assay
Calu-3 [2] = experiment: as above
Caco-2 [3] = experiment: as above
Vero E6 [4] = experiment: as above
HepG2 [5] = experiment: as above
U2OS [6] = experiment: relative viability EC50 (midpoint between 100% and the lowest measured viability); higher = less toxic
Calu-3 [7] = experiment: as above
Caco-2 [8] = experiment: as above
Vero E6 [9] = experiment: as above
HepG2 [10] = experiment: as above
U2OS [11] = experiment: cell viability relative to DMSO; higher = less toxic
Calu-3 [12] = experiment: as above
Caco-2 [13] = experiment: as above
Vero E6 [14] = experiment: as above
HepG2 [15] = experiment: as above

| SMILES | drug sensitivity score (U2OS [1]) | drug sensitivity score (Calu-3 [2]) | drug sensitivity score (Caco-2 [3]) | drug sensitivity score (Vero E6 [4]) | drug sensitivity score (HepG2 [5]) | relative viability EC50 (U2OS [6]) [µM] | relative viability EC50 (Calu-3 [7]) [µM] | relative viability EC50 (Caco-2 [8]) [µM] | relative viability EC50 (Vero E6 [9]) [µM] | relative viability EC50 (HepG2 [10]) [µM] | cell viability (U2OS [11]; 1 nM) [%] | cell viability (U2OS [11]; 10 nM) [%] | cell viability (U2OS [11]; 100 nM) [%] | cell viability (U2OS [11]; 1000 nM) [%] | cell viability (U2OS [11]; 10000 nM) [%] | cell viability (Calu-3 [12]; 1 nM) [%] | cell viability (Calu-3 [12]; 10 nM) [%] | cell viability (Calu-3 [12]; 100 nM) [%] | cell viability (Calu-3 [12]; 1000 nM) [%] | cell viability (Calu-3 [12]; 10000 nM) [%] | cell viability (Caco-2 [13]; 1 nM) [%] | cell viability (Caco-2 [13]; 10 nM) [%] | cell viability (Caco-2 [13]; 100 nM) [%] | cell viability (Caco-2 [13]; 1000 nM) [%] | cell viability (Caco-2 [13]; 10000 nM) [%] | cell viability (Vero E6 [14]; 1 nM) [%] | cell viability (Vero E6 [14]; 10 nM) [%] | cell viability (Vero E6 [14]; 100 nM) [%] | cell viability (Vero E6 [14]; 1000 nM) [%] | cell viability (Vero E6 [14]; 10000 nM) [%] | cell viability (HepG2 [15]; 1 nM) [%] | cell viability (HepG2 [15]; 10 nM) [%] | cell viability (HepG2 [15]; 100 nM) [%] | cell viability (HepG2 [15]; 1000 nM) [%] | cell viability (HepG2 [15]; 10000 nM) [%] |
| --- | --- | --- | --- | --- | --- | --- | --- | --- | --- | --- | --- | --- | --- | --- | --- | --- | --- | --- | --- | --- | --- | --- | --- | --- | --- | --- | --- | --- | --- | --- | --- | --- | --- | --- | --- |
| COC(=O)c1sccc1S(=O)(=O)Nc1ccc(Nc2ccccc2)cc1OC [GSK0660] | 0 | 0 | 0 | 0 | 0 | > 10 | > 10 | > 10 | > 10 | > 10 | 101 | 95.4 | 98.8 | 95.5 | 93.5 | 106 | 102 | 101 | 93.1 | 102 | 96.8 | 86.2 | 104 | 105 | 98.9 | 91.9 | 104 | 94.8 | 102 | 104 | 91.4 | 109 | 102 | 101 | 92.6 |
| O=[N+]([O-])c1cn2c(n1)OC[C@@H](OCc1ccc(-c3ccc(OC(F)(F)F)cc3)nc1)C2 [TBA-354] | 0 | 0 | 0 | 0 | 0 | > 10 | > 10 | > 10 | > 10 | > 10 | 98.3 | 98.8 | 102 | 100 | 98.8 | 101 | 103 | 106 | 96.1 | 98.5 | 99.5 | 95.4 | 103 | 92.1 | 92.9 | 96.7 | 101 | 93.6 | 99 | 104 | 92.9 | 108 | 89.4 | 110 | 105 |
| CO[C@H]1O[C@@H]2O[C@@]3(C)CC[C@H]4[C@H](C)CC[C@@H]([C@H]1C)[C@@]24OO3 [artemether] | 0 | 0 | 0.4 | 0 | 0.4 | > 10 | > 10 | > 10 | > 10 | > 10 | 99.1 | 97.1 | 101 | 96.6 | 94.4 | 106 | 108 | 96.3 | 101 | 96.5 | 95.4 | 94.5 | 97.3 | 86.6 | 86.2 | 103 | 106 | 92.1 | 95.9 | 96.9 | 97.6 | 101 | 103 | 92.1 | 87.8 |
| CCCn1c(=O)[nH]c(=O)c2nc[nH]c21 [enprofylline] | 0 | 0 | 0 | 0 | 0.2 | > 10 | > 10 | > 10 | > 10 | > 10 | 104 | 99.1 | 98.9 | 97.6 | 104 | 105 | 96.9 | 95.6 | 108 | 109 | 104 | 100 | 99.5 | 104 | 95.5 | 97.6 | 98.3 | 91.1 | 94.7 | 94.5 | 97.4 | 110 | 100 | 95.9 | 88.2 |
| Nc1ncnc(Nc2ccc(Cl)cc2)n1 [chlorazanil] | 0 | 0 | 0 | 0 | 0 | > 10 | > 10 | > 10 | > 10 | > 10 | 101 | 96.8 | 97.8 | 98.3 | 99.6 | 104 | 101 | 103 | 87.4 | 98.4 | 116 | 97.7 | 96.5 | 101 | 103 | 99.6 | 101 | 91 | 98.6 | 101 | 96.4 | 93.9 | 88 | 93.7 | 92.5 |
| CC(C)(C)OC(=O)c1ncn2c1[C@@H]1CCCN1C(=O)c1c(Br)cccc1-2 [bretazenil] | 0 | 0 | 0 | 0 | 0 | > 10 | > 10 | > 10 | > 10 | > 10 | 98.2 | 98.8 | 105 | 92.6 | 98.2 | 90 | 92.9 | 98.2 | 99.8 | 96 | 94 | 93.9 | 99.3 | 96.1 | 100 | 91.1 | 100 | 95.5 | 96.5 | 104 | 83.1 | 94.1 | 95.2 | 105 | 103 |
| CC(=O)N(CC(O)CO)c1c(I)c(C(=O)NCCO)c(I)c(C(=O)NCC(O)CO)c1I (stereo not given) [ioxilan] | 0 | 0 | 0 | 0 | 0 | > 10 | > 10 | > 10 | > 10 | > 10 | 97.1 | 97.1 | 101 | 92.8 | 102 | 105 | 96.9 | 99.7 | 101 | 88.9 | 103 | 91.6 | 93.6 | 90.5 | 90.6 | 113 | 103 | 93 | 106 | 101 | 105 | 101 | 86 | 109 | 90.8 |
| Cc1ccc2c(c1)C(=O)[C@]1(O)CCN(c3ccccc3)C1=N2 (racemic) [blebbistatin-(+/-)] | 0.05 ± 0.071 | 0 | 0.3 ± 0.42 | 0.15 ± 0.21 | 0 | > 10 | > 10 | > 10 | > 10 | > 10 | 99.4 ± 1.6 | 101.2 ± 0.78 | 97.8 ± 1.8 | 99.85 ± 0.35 | 95.2 ± 12 | 99 ± 11 | 95.9 ± 0.28 | 95.5 ± 10 | 109 ± 3.2 | 136 ± 9.8 | 100 ± 2.5 | 97.25 ± 0.49 | 97.9 ± 2.1 | 98.5 ± 1.1 | 94.2 ± 16 | 98.6 ± 0.99 | 96.6 ± 4.5 | 96.4 ± 4.4 | 95.5 ± 3.9 | 93.4 ± 10 | 98 ± 1.3 | 88.2 ± 0.92 | 98.3 ± 8.3 | 89 ± 9.6 | 96 ± 7 |
| CCCNCCc1ccc(NS(=O)(=O)c2ccc(OC(F)(F)F)cc2)cc1 | 0 | 0 | 0 | 0 | 1.1 | > 10 | > 10 | > 10 | > 10 | > 10 | 105 | 104 | 100 | 98.4 | 92.9 | 97.8 | 108 | 102 | 100 | 97.4 | 102 | 102 | 91.5 | 103 | 98.2 | 116 | 106 | 101 | 103 | 88.2 | 101 | 92.5 | 104 | 85.5 | 90 |
| CC(C)C(=O)SCCCCC[C@H](NC(=O)OC(C)(C)C)C(=O)NC12CC3CC(CC(C3)C1)C2 [TCS-HDAC6-20b] | 0 | 0.1 | 0 | 0 | 0 | > 10 | > 10 | > 10 | > 10 | > 10 | 101 | 102 | 106 | 98.4 | 98.4 | 101 | 93.3 | 95.6 | 108 | 85.3 | 97.7 | 96.9 | 95.5 | 102 | 103 | 96.5 | 96.2 | 97 | 98.9 | 113 | 101 | 99.3 | 101 | 96.5 | 105 |
| NCC(O)c1ccc(O)cc1 (stereo not given) [octopamine] | 0 | 0 | 0.1 | 0 | 0 | > 10 | > 10 | > 10 | > 10 | > 10 | 95.1 | 97.3 | 101 | 96.5 | 95.6 | 108 | 105 | 93 | 108 | 95.6 | 87.1 | 96.9 | 94 | 100 | 86.1 | 106 | 96.6 | 101 | 85.1 | 100 | 91.7 | 103 | 95.9 | 97.5 | 117 |
| NC[C@H]1O[C@H](O[C@H]2[C@H](O)[C@@H](O[C@H]3O[C@H](CO)[C@@H](O)[C@H](N)[C@H]3O)[C@H](N)C[C@@H]2N)[C@H](N)C[C@@H]1O [tobramycin] | 0 | 0 | 0 | 0 | 0 | > 10 | > 10 | > 10 | > 10 | > 10 | 95 | 103 | 97.6 | 100 | 108 | 99.4 | 102 | 101 | 98.5 | 102 | 90.2 | 92.8 | 104 | 92.6 | 106 | 99.6 | 101 | 100 | 95.7 | 107 | 108 | 94.5 | 104 | 97.6 | 106 |
| C[N+](C)(C)[C@@H](Cc1c[nH]c(=S)[nH]1)C(=O)O [L-ergothioneine] | 0 | 0 | 0 | 0 | 0.7 | > 10 | > 10 | > 10 | > 10 | > 10 | 96 | 94.1 | 98.2 | 92.4 | 95.6 | 97.2 | 97.7 | 95.2 | 108 | 95.4 | 100 | 101 | 114 | 105 | 97.3 | 94.3 | 94.9 | 96.5 | 109 | 106 | 83.4 | 88.9 | 102 | 98.8 | 80.4 |
| COc1cc(NS(C)(=O)=O)ccc1Nc1c2ccccc2nc2ccccc12 [amsacrine] | 3.9 | 10.3 | 6.1 | 7.4 | 12.6 | 2.79 | 0.866 | 2.35 | 0.677 | 0.241 | 103 | 98.1 | 99.5 | 96.9 | 37.2 | 105 | 93.7 | 80.3 | 61.5 | 12.3 | 101 | 90.9 | 97.3 | 91.6 | 14.3 | 93 | 89.3 | 94.6 | 65.2 | 41.7 | 87.4 | 89.9 | 78.5 | 48.8 | 29 |
